Here are results for one substance from publication PMC8406304, “Inhibiting Type VI Secretion System Activity with a Biomimetic Peptide Designed To Target the Baseplate Wedge Complex” (mBio, 2021).

Data set [1] deals with TssK-sfGFP foci in EAEC (assembled baseplates). Format: cell-based, enteroaggregative Escherichia coli (EAEC). How it is done:
Fluorescence microscopy experiments were performed as previously described ([97], [98]). An overnight culture in LB of EAEC strain with a chromosomal GFP fusion to TssK was diluted 1/200 in SIM medium and grown at 37°C until the culture reached an A600 of ∼0.8. Ten optical density units (ODU) was pelleted for 10 min at 3,500 × g, resuspended at 1 ODU/ml in the same SIM medium supplemented with 0.8 M NaCl, and equilibrated for 1 h at room temperature. Cells were pelleted for 10 min at 3,500 × g, resuspended in 100 μl of classical SIM without NaCl supplemented with 1 mM peptide of buffer, and incubated for 20 min at room temperature. Cells were diluted in classical SIM medium at 0.4 ODU/ml and incubated at 37°C 160 rpm until the absorbance again reached ∼0.8. Ten ODU was harvested and resuspended in fresh SIM medium. Cell mixtures were spotted on a thin pad of SIM medium supplemented with 2% agarose, covered with a coverslip, and incubated for 20 to 30 min at room temperature before microscopy acquisition. Fluorescence microscopy was performed with a Nikon Eclipse Ti2 microscope equipped with a 100× objective (numerical aperture, 1.45), an Orca-Fusion digital camera (Hamamatsu), and a perfect focus system (PFS) to automatically maintain focus so that the point of interest within a specimen is kept in sharp focus at all times despite mechanical or thermal perturbations. All fluorescence images were acquired in Hilo mode using an Ilas2 TIRF module (Gataca Systems). Exposure times were typically 100 ms for phase contrast and 100 ms using the GFP channel. For image treatment, noise and background were reduced by filtering large structures down to 40 pixels in the FFT Bandpass Filter function of ImageJ ([102]). The GFP foci were automatically detected using the MicrobeJ plugin ([103]).

For data set [2], the system named is TssK. The experiment in a line: NMR peptide-TssK interaction (1H-15N HSQC, 1D 1H). Format: binding, enteroaggregative Escherichia coli (EAEC). The procedure: (§1) All NMR experiments were recorded at 300 K on a Bruker Avance-II 600 MHz spectrometer equipped with a cryoprobe at the IMM (Institut de Microbiologie de la Mediterranée) NMR platform. The 450-μl peptide sample tube was prepared at 1.8 mM in KPO4 buffer (50 mM KPO4 [pH 6.9], 150 mM NaCl) complemented with 30 μl D2O. 1D ^1H-^1H-TOCSY, ^1H-NOESY, and ^1H-^15N HSQC spectra (F2 = 2048; F1 = 128; NS = 384) (NS is the number of scans [accumulation] for the experiment; F2 is the sweep width; F1 is the Fourier number that defines the 2D spectrum dimensions and its digital resolution) were recorded using default pulse sequences as provided by the manufacturer. For the peptide-TssK interaction experiments, 200 μl of a 410 μM stock of TssK was added to the same sample tube (1.2 mM peptide and 140 μM TssK [final concentration]), and all NMR spectra were recorded with the addition of longer ^1H-^15N HSQC spectrometry (NS = 1,024). All spectra were transformed and the figures were generated using Bruker Topspin 4.0.9.

Data set [3] deals with EAEC T6SS+ killing of E. coli K-12 W3110 prey. Description: Antibacterial growth competition assay (EAEC attacker vs E. coli prey). Format: cell-based, enteroaggregative Escherichia coli (EAEC). As to conditions: 1 mM BCP added directly to competition mixture, 4 h at 37°C, CFU enumeration. How it is done:
Based on the BCP ability to bind to TssK and to limit the in vitro binding of the TssFGE wedge components onto TssK, we evaluated its T6SS interference potential on bacteria. We set up a competition experiment between EAEC (predator, T6SS^+) and E. coli (prey, T6SS^−) strains (see Materials and Methods) in the presence or absence of the BCP. Incubation of cells with 1 mM BCP is accompanied by a drastic decrease of prey cells number, similar to what is observed in the absence of BCP. […] To test this hypothesis, we developed a protocol favoring BCP entry into bacterial cells without any electroporation or chemical steps likely to impair T6SS activity (see Materials and Methods).
The antibacterial growth competition assay was performed as previously described ([100]). Wild-type E. coli K-12 strain W3110 bearing the pUA66-rrnB plasmid (conferring kanamycin resistance and constitutive GFP fluorescence, with the gfp gene under the control of the ribosomal rrnB promoter) ([101]) was used as the recipient. Attacker and recipient cells were grown for 16 h in LB medium, diluted in SIM medium to allow maximal expression of the sci-1 gene cluster. Once the culture reached an A600 of ∼0.8, cells were harvested and normalized, and drops of the mixture were spotted in triplicate onto a prewarmed dry SIM agar plate with or without the addition of 0.5 mg ml^−1 arabinose. […]

The nature of data set [4]: NMR of the free cyclic peptide. Format: physicochemical. As to conditions: 1H-NOESY, 1.8 mM peptide, 50 mM KPO4 pH 6.9, 150 mM NaCl, 300 K. The procedure: as §1
For data set [5], the system named is TssK. Description: Isothermal titration calorimetry (ITC), TssK-WT. The data set is classed as binding, enteroaggregative Escherichia coli (EAEC). As to conditions: 25°C. The procedure: To evaluate the direct interaction between the BCP and its target TssK, we performed isothermal titration calorimetry (ITC) experiments. The wild-type BCP and TssK interact with an observable affinity (KD) of 60 μM (Fig. 5A).
The working buffer for both proteins and peptide was 50 mM HEPES (pH 7.0), 150 mM NaCl to avoid buffer mismatch. The experiments were performed at 25°C using the MicroCal PEAQ-ITC instrument (Malvern Panalyticals, Malvern, UK) in duplicate with 19 injections, first with an initial injection of 0.4 μl followed by 18 injections of 2 μl. Two assays were performed. In the first, 25 μM WT TssK ligand was in the cell and 1 mM WT BCP analyte was in the syringe. In the second, 25 μM TssK L14A ligand was in the cell and 1 mM WT BCP analyte was in the syringe. The reaction was performed with a constant stirring speed of 750 rpm; each injection lasted for 4 s with a 150-s space between injections. A constant heat control (offset) was removed from the raw data to account for heat dilution before integration. The data were fitted using the One Set of Sites model in the PEAQ-ITC analysis software.
Background: Isothermal titration calorimetry measures the heat released or taken up as one component is titrated into another.

Usually Kd stands for the constant that tells how readily two partners part at equilibrium.

Entries after “also recorded” stand apart in the source; their conditions may differ.

With “SRPVMG-SRPVMG-SRPVMG (head to tail) [BCP, biomimetic cyclic peptide SRPVMG-SRPVMG-SRPVMG mimicking TssG foot 1]”, the “time of maximum effect after peptide entry” value in data set [1] (1 mM) was “within the first hour after peptide entry”. Further, in data set [1] (1 mM peptide, hypo-osmotic shock (osmoporation), vs peptide-free treated cells, ∼500 cells per condition, triplicate), the “increase in proportion of bacteria with no observable TssK-sfGFP foci” value is around 30%. Further, in data set [1] (1 mM peptide, hypo-osmotic shock, in words, ∼500 cells per condition, triplicate), the “number of fluorescent TssK-sfGFP foci” value is “decreased TssK-sfGFP foci compared to both control peptides”. Moreover, in data set [1] (BCP, cells without osmotic shock, compared to cells without peptide), the “TssK-GFP foci without osmotic shock” value is given as “comparable to those without peptide”. Further, the “requirement of hypo-osmotic shock for entry into cells” value in data set [1] (EAEC TssK-GFP, SIM medium, NaCl-induced hypo-osmotic shock) was “mandatory for BCP entry into cells”. For the same substance, the “1H-15N HSQC correlations after addition of TssK” value with TssK [2] (1 part TssK to 10 parts BCP (1.2 mM peptide, 140 μM TssK), 50 mM KPO4 pH 6.9, 150 mM NaCl, 300 K) is reported as “totally disappear”. For the same substance, the “1D 1H NMR peptide peaks after addition of TssK” value in the data set on TssK [2] (1 part TssK to 10 parts BCP, pH 6.9, 300 K) is reported as “strong broadening of the peptides peaks”. For the same substance, in data set [3], the “effect on killing ability of EAEC (prey survival)” value is reported as “does not affect the killing ability of EAEC”. Besides, the “3D folding / internal structure of free peptide” value in data set [4] is listed as “absence of an internal structure of the free peptide”. In addition, the “ITC binding signature: enthalpy / ΔG” value with TssK [5] (ITC signature plot, TssK-WT with BCP, pH 7.0) is “driven by a favorable enthalpy; also recorded: enthalpy-driven interaction with a favorable ΔG”. The Kd on TssK [5] (ITC, 25 μM TssK-WT in cell, 1 mM BCP in syringe, 50 mM HEPES pH 7.0, 150 mM NaCl, duplicate, One Set of Sites fit, read-out: observable affinity (KD)) was 60 µM.
